Structures are written as SMILES. Counter-ions that a name gives are not always drawn.

For test [1], the system named is COPD patients. Conditions: cited from earlier work.
Test [2] has as its system atopic dermatitis patients. Conditions: cited from earlier work.
The target in test [3] is T1, PDE4B (human recombinant) (Homo sapiens, UniProt Q07343).
T1 construct: made in house; host or cells: Saccharomyces cerevisiae strain GL62 (named as a possible source, as described in WO 94/20079)
Description: Inhibition of PDE4B activity: IMAP Fluorescence Polarisation (FP) assay. In kind it is biochemical. To be noted: FP assay or generally similar assay; each limit ±about 0.5; n=1 or average of 2 or more readings; read-out: PDE4B inhibitory activities, pIC50 (converted). An excerpt: The ability of compounds to inhibit catalytic activity at PDE4B (human recombinant) or PDE4D (human recombinant) can optionally be determined by IMAP Fluorescence Polarisation (FP) assay (IMAP Explorer kit, available from Molecular Devices Corporation, Sunnydale, Calif., USA; Molecular Devices code: R8062) in 384-well format.
The IMAP FP assay is able to measure PDE activity in an homogenous, non-radioactive assay format. The FP assay uses the ability of immobilised trivalent metal cations, coated onto nanoparticles (tiny beads), to bind the phosphate group of Fl-AMP that is produced on the hydrolysis of fluorescein-labelled (Fl) cyclic adenosine mono-phosphate (Fl-cAMP) to the non-cyclic Fl-AMP form. […] Binding of Fl-AMP product to the beads (coated with the immobilised trivalent cations) slows the rotation of the bound Fl-AMP and leads to an increase in the fluorescence polarisation ratio of parallel to perpendicular light. Inhibition of the PDE reduces/inhibits this signal increase.
Test compounds (small volume, e.g. ca. 0.5 to 1 microlitres (ul), suitably ca. 0.5 ul, of solution in DMSO) are preincubated at ambient temperature (room temperature, e.g. 19-23° C.) in black 384-well microtitre plates (supplier: NUNC, code 262260) with PDE enzyme in 10 mM Tris-HCl buffer pH 7.2, 10 mM MgCl2, 0.1% (w/v) bovine serum albumin, and 0.05% NaN3 for 10-30 minutes. The enzyme level is set by experimentation so that reaction is linear throughout the incubation. Fluorescein adenosine 3′,5′-cyclic phosphate (from Molecular Devices Corporation, Molecular Devices code: R7091) is added to give about 40 nM final concentration (final assay volume usually ca. 20-40 ul, suitably ca. 20 ul). Plates are mixed on an orbital shaker for 10 seconds and incubated at ambient temperature for 40 minutes. IMAP binding reagent (as described above, from Molecular Devices Corporation, Molecular Devices code: R7207) is added (60 ul of a 1 in 400 dilution in binding buffer of the kit stock solution) to terminate the assay. Plates are allowed to stand at ambient temperature for 1 hour. The Fluorescence Polarisation (FP) ratio of parallel to perpendicular light is measured using an Analyst™ plate reader (from Molecular Devices Corporation). For inhibition curves, 10 concentrations (e.g. 1.5 nM-30 uM) of each compound are assayed. Curves are analysed using ActivityBase and XLfit (ID Business Solutions Limited, 2 Ocean Court, Surrey Research Park, Guildford, Surrey GU2 7QB, United Kingdom). Results are expressed as pIC50 values.
In the FP assay, reagents can be dispensed using Multidrop™ (available from Thermo Labsystems Oy, Ratastie 2, PO Box 100, Vantaa 01620, Finland).
(In fluorescence polarisation assays a small probe gives low polarisation when free and higher when bound to something large.)

T1 sequence (Q07343 1-564 isoform Q07343-2): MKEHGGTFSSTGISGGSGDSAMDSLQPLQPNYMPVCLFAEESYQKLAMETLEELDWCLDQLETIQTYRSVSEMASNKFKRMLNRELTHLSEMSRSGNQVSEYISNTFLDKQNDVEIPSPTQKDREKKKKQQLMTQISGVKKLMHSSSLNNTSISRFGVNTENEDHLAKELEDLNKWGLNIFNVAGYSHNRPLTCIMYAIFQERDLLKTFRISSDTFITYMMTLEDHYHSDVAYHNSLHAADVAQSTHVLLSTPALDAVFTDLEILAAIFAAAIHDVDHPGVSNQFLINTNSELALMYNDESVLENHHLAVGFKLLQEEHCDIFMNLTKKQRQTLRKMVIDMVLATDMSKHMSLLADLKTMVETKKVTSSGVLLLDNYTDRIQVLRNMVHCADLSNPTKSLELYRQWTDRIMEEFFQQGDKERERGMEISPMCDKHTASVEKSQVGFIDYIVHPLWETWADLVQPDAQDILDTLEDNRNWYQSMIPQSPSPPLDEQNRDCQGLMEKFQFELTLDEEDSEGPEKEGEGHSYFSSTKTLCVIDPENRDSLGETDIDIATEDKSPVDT

In the case of `COc1ccc([C@]2(C#N)CC[C@@H](C(=O)O)CC2)cc1OC1CCCC1` [cilomilast], the “forced expiratory volume in 1s (FEV1)” value in test [1] (15 mg orally twice daily) was “appears to improve forced expiratory volume in 1s (FEV1)”. Moreover, in test [1], the “antiinflammatory effects in COPD patients” value is on record as “appears to have antiinflammatory effects”.

As for `COc1ccc(C2CNC(=O)NC2)cc1O[C@H]1C[C@@H]2CC[C@H]1C2` [CP80,633], the “inflammatory parameters in atopic dermatitis patients” value in test [2] (0.5% ointment, twice daily topical application) is given as “reductions of inflammatory parameters”.

Regarding `CCc1nc2c(cnn2CC)c(NC2CCN(C(N)=O)CC2)c1CNC(=O)CCCCCCCN1CCC[C@H]1COC` [Example 8, 4-[(1,6-diethyl-5-{[(8-{(2S)-2-[(methyloxy)methyl]-1-pyrrolidinyl}octanoyl)amino]methyl}-1H-pyrazolo[3,4-b]pyridin-4-yl)amino]-1-piperidinecarboxamide trifluoroacetate], in test [3], the IC50 is 200 to 1580 pM.

For `Nc1nc2c([nH]1)c(=O)n(CC1CC1)c(=O)n2CC1CC1` [cipamfylline], in test [2] (0.15% cream), the “efficacy in the treatment of atopic dermatitis patients versus hydrocortisone 17-butyrate (0.1%) cream” value is on record as “significantly less effective than hydrocortisone 17-butyrate (0.1%) cream” and the “efficacy in the treatment of atopic dermatitis patients versus vehicle” value is listed as “significantly more effective than vehicle”.

Regarding `CCc1nc2c(cnn2CC)c(NC2CCOCC2)c1CNC(=O)CCCCCCCN1CCC[C@@H]1COC` [Example 15, N-{[1,6-diethyl-4-(tetrahydro-2H-pyran-4-ylamino)-1H-pyrazolo[3,4-b]pyridin-5-yl]methyl}-8-{(2R)-2-[(methyloxy)methyl]-1-pyrrolidinyl}octanamide trifluoroacetate], the IC50 in test [3] was 200 to 1580 pM.

Consider `O=C(Nc1c(Cl)cncc1Cl)c1ccc(OC(F)F)c(OCC2CC2)c1` [roflumilast], for which, in test [1], the “FEV1 in COPD patients” value is “appears to show small improvements in FEV1”.

Turning to `CCc1nc2c(cnn2CC)c(NC2CCN(C(N)=O)CC2)c1CNC(=O)CCCCCCCN1CCC[C@@H]1COC` [Example 7, 4-[(1,6-diethyl-5-{[(8-{(2R)-2-[(methyloxy)methyl]-1-pyrrolidinyl}octanoyl)amino]methyl}-1H-pyrazolo[3,4-b]pyridin-4-yl)amino]-1-piperidinecarboxamide trifluoroacetate], the IC50 in test [3] is 200 to 1580 pM.

As for `CCc1nc2c(cnn2CC)c(NC2CCOCC2)c1CNC(=O)CCCCCCCN1CCC[C@H]1COC` [Example 16, N-{[1,6-diethyl-4-(tetrahydro-2H-pyran-4-ylamino)-1H-pyrazolo[3,4-b]pyridin-5-yl]methyl}-8-{(2S)-2-[(methyloxy)methyl]-1-pyrrolidinyl}octanamide trifluoroacetate], the IC50 in test [3] was 200 to 1580 pM.
